Experimental data as given in ChEMBL document CHEMBL3046737, “Mode of Action of Cyanohydrins in Insects” (J Pestic Sci, 2005).
≈ marks a conversion by molar mass, not a printed value.

Assays:
[1] = test system: Rhyzopertha dominica; assay: Insecticidal activity against Rhyzopertha dominica after 24 hr; format: functional
[2] = test system: Musca domestica; assay: Insecticidal activity against Musca domestica (house fly) after 24 hr; format: functional
[3] = test system: Musca domestica; assay: Drug level in Musca domestica (house fly) assessed as cyanide ion level per gram of insect at L99 treated topically after 24 hr by spectrophotometric method; format: ADME, organism-based; settings: in vivo, topical_or_ocular
[4] = test system: Musca domestica; assay: Drug level in Musca domestica (house fly) at 1000 ug after 24 hr by spectrophotometric method; format: ADME, organism-based; settings: in vivo
[5] = test system: Rhyzopertha dominica; assay: Drug level in Rhyzopertha dominica assessed as cyanide ion level per gram of insect at L99 treated as fumigation after 24 hr by spectrophotometric method; format: ADME, organism-based; settings: in vivo, other
[6] = test system: Musca domestica; assay: Drug level in Musca domestica (house fly) assessed as cyanide ion level per gram of insect at L99 treated as fumigation after 24 hr by spectrophotometric method; format: ADME, organism-based; settings: in vivo, inhaled_or_intranasal

SMILES	LC50 [1]	LC50 [2]	Drug uptake [3]	Drug uptake [4]	Drug uptake [5]	Drug uptake [6]
CCC(Cl)Cl [DICHLOROPROPANE]	5.47 µg/mL (≈ 48.4 µM)	0.9 µg/mL (≈ 7.97 µM)				
C=CC(O)C#N (centres undefined)	0.37 µg/mL (≈ 4.45 µM)	0.056 µg/mL (≈ 0.674 µM)	52 ppm	53%	35 ppm	38 ppm
COP(=O)(OC)OC=C(Cl)Cl [DICHLORVOS]	0.29 µg/mL (≈ 1.31 µM)	0.011 µg/mL (≈ 0.0498 µM)				
CC(C)(O)C#N [DIMETHYLKETONE CYANOHYDRIN]	0.4 µg/mL (≈ 4.7 µM)	0.07 µg/mL (≈ 0.823 µM)	56 ppm	53%	43 ppm	48 ppm
CCC(C)(O)C#N (centres undefined) [METHYLETHYL KETONE CYANOHYDRIN]	0.41 µg/mL (≈ 4.14 µM)	0.09 µg/mL (≈ 0.908 µM)				
C=CC(C#N)OC(C)=O (centres undefined) [1-CYANOALLYL ACETATE]	0.37 µg/mL	0.26 µg/mL	54 ppm	53%	33 ppm	39 ppm
